What was measured:
[1] = target: T1, Calcium/calmodulin-dependent protein kinase type IV (Homo sapiens) (UniProt Q16566); assay: Inhibition of recombinant human full length GST-tagged CAMK4 expressed in Escherichia coli at 500 nM by Z-LYTE assay relative to control
T1 sequence (whole entry): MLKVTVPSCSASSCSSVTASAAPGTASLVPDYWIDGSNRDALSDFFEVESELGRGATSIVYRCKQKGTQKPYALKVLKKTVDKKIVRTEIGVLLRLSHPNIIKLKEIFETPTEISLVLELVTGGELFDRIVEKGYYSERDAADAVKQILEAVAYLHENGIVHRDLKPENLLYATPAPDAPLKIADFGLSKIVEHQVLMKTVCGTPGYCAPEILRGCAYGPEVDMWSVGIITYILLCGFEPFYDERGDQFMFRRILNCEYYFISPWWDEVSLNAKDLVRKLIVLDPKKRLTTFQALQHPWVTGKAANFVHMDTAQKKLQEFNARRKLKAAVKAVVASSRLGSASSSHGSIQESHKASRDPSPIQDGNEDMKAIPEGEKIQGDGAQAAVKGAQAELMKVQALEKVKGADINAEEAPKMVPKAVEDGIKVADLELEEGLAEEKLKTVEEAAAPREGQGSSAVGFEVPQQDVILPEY

[2] = target: Serine/threonine-protein kinase pim-1 (Homo sapiens) (UniProt P11309); assay: Inhibition of recombinant full length human His-tagged PIM1 expressed in baculovirus expression system at 500 nM by Z-LYTE assay relative to control
Serine/threonine-protein kinase pim-1 (Homo sapiens), sequence (P11309 whole entry, looked up, the tested form may be a part): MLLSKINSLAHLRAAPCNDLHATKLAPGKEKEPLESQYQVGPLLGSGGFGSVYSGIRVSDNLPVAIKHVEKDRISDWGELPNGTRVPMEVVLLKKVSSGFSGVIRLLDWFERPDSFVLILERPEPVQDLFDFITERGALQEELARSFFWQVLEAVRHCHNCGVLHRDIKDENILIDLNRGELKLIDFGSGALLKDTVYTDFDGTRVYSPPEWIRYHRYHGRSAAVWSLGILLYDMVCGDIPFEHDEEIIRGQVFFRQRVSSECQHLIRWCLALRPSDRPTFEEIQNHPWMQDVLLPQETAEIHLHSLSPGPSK

[3] = target: Platelet-derived growth factor receptor alpha (Homo sapiens) (UniProt P16234); assay: Inhibition of recombinant human GST-tagged PDGFRalpha cytoplasmic domain (550 to 1089 residues) expressed in baculovirus expression system at 500 nM by Z-LYTE assay relative to control
Platelet-derived growth factor receptor alpha (Homo sapiens), sequence (P16234 whole entry, the tested form may be a part): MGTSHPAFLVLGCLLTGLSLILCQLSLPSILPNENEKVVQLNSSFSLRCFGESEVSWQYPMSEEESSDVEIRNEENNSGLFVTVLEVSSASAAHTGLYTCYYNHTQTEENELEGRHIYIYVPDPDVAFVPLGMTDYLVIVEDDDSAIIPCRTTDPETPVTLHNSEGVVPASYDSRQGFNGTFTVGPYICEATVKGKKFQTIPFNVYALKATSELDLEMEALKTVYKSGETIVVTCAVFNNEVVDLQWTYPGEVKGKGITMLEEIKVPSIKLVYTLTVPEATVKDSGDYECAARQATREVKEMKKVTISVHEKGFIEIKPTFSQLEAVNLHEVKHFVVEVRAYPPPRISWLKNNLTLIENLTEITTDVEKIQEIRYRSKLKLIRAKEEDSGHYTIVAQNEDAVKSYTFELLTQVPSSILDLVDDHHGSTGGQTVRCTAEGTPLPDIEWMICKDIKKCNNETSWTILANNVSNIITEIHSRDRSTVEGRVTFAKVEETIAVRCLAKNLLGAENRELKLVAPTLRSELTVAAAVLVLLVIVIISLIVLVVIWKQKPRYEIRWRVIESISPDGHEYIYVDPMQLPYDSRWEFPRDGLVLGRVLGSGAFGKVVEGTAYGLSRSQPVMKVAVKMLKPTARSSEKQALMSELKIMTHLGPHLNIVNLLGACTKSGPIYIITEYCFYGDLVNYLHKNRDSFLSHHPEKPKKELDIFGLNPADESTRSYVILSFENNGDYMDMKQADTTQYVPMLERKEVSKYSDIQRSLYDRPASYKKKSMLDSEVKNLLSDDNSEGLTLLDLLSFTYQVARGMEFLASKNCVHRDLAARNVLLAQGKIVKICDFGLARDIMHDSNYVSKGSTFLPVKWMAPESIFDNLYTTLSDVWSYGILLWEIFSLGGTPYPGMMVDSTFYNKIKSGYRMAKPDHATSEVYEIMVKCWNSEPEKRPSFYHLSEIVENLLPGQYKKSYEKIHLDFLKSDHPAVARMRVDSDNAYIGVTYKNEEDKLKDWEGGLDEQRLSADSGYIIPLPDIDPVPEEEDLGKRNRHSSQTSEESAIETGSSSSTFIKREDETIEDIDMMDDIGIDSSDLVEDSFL

[4] = target: Hepatocyte growth factor receptor (Homo sapiens) (UniProt P08581); assay: Inhibition of recombinant truncated human His-tagged MET expressed in mammalian expression system at 500 nM by Z-LYTE assay relative to control
Hepatocyte growth factor receptor (Homo sapiens), sequence (P08581 whole entry, the tested form may be a part): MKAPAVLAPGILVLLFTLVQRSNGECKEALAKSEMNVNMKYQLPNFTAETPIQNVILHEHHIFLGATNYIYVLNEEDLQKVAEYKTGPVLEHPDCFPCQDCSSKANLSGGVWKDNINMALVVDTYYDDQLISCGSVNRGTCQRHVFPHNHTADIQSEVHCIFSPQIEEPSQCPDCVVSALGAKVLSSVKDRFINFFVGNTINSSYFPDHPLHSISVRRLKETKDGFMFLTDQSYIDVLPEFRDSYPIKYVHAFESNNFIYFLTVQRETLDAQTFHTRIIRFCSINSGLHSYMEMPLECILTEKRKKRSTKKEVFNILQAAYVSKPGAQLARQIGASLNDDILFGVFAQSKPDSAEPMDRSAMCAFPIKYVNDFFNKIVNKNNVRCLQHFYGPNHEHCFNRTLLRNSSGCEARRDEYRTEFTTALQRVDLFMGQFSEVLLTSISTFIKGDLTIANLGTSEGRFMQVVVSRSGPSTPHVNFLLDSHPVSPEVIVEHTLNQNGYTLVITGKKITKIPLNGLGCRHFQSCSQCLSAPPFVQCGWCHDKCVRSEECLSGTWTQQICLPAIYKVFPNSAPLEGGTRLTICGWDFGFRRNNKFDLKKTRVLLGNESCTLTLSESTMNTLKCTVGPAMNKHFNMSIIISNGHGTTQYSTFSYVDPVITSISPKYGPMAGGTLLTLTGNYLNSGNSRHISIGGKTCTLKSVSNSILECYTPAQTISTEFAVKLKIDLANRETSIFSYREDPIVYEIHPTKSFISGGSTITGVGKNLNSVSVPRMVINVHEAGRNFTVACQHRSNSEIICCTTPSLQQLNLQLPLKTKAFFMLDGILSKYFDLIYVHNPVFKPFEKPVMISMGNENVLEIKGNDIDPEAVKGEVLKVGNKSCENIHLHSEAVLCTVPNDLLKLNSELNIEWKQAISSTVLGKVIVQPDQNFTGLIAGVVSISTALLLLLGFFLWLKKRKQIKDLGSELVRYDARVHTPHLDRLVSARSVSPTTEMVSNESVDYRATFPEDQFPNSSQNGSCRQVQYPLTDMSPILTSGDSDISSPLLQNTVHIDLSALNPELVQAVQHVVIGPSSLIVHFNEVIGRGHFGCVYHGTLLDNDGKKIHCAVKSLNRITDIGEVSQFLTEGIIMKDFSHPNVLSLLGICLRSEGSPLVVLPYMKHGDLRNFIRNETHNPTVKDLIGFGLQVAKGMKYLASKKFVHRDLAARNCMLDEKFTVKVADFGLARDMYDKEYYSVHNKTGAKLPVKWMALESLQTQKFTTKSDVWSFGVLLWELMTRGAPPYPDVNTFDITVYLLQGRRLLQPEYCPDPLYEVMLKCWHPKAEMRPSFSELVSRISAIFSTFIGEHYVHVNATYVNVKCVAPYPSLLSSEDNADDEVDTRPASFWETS

[5] = target: Rho-associated protein kinase 1 (Homo sapiens) (UniProt Q13464); assay: Inhibition of recombinant human GST-tagged ROCK1 cytoplasmic domain expressed in baculovirus expression system at 500 nM by Z-LYTE assay relative to control
[6] = target: T2, Mitogen-activated protein kinase 13 (Homo sapiens) (UniProt O15264); assay: Inhibition of recombinant human full length His-tagged p38-delta expressed in baculovirus expression system at 500 nM by Z-LYTE assay relative to control
T2 sequence (whole entry): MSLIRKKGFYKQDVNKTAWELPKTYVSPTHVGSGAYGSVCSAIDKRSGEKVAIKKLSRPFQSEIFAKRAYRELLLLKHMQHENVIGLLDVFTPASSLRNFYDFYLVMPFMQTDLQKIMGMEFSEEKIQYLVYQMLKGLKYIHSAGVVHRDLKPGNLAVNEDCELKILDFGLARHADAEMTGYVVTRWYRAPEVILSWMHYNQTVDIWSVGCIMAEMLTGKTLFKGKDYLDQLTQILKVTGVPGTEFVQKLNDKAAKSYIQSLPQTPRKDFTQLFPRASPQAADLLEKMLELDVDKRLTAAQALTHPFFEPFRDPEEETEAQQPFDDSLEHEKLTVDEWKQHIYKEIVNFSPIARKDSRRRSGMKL

[7] = target: Mitogen-activated protein kinase 8 (Homo sapiens) (UniProt P45983); assay: Inhibition of recombinant human full length His-tagged JNK1 expressed in baculovirus expression system at 500 nM by Z-LYTE assay relative to control
Mitogen-activated protein kinase 8 (Homo sapiens), sequence (P45983 whole entry): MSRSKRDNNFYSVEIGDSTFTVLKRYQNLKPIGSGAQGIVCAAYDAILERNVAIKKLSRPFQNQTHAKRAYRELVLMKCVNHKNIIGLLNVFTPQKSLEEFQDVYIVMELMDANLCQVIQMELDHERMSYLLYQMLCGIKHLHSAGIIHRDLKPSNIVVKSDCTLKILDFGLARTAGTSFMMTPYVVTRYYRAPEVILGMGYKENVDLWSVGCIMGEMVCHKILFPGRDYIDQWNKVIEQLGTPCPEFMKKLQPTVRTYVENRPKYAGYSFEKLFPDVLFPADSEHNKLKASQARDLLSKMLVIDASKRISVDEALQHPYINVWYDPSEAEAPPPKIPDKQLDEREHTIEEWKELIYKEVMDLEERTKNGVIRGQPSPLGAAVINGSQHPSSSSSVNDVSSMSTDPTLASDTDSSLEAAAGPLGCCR

[8] = target: Calcium/calmodulin-dependent protein kinase type 1G (Homo sapiens) (UniProt Q96NX5); assay: Inhibition of recombinant human full length GST-tagged CAMK1G expressed in insect cells at 500 nM by Z-LYTE assay relative to control
[9] = target: Dual specificity mitogen-activated protein kinase kinase 1 (Homo sapiens) (UniProt Q02750); assay: Inhibition of recombinant human full length His-tagged MEK1 expressed in baculovirus expression system at 500 nM by Z-LYTE assay relative to control
Dual specificity mitogen-activated protein kinase kinase 1 (Homo sapiens), sequence (Q02750 whole entry): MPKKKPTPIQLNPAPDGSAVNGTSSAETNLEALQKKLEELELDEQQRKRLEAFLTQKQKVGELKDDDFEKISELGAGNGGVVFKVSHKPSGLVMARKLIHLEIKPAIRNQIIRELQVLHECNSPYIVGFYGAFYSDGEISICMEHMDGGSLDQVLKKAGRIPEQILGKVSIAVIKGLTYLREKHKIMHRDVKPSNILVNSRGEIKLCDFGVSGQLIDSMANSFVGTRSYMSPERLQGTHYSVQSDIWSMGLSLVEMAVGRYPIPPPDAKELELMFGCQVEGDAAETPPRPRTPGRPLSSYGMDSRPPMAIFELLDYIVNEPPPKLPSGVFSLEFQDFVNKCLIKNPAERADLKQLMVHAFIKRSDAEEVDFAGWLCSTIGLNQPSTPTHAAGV

[10] = target: Serine/threonine-protein kinase pim-3 (Homo sapiens) (UniProt Q86V86); assay: Inhibition of recombinant full length human GST-tagged PIM3 expressed in insect cells at 500 nM by Z-LYTE assay relative to control
[11] = target: Serine/threonine-protein kinase PAK 2 (Homo sapiens) (UniProt Q13177); assay: Inhibition of recombinant human full length GST-tagged PAK2 expressed in baculovirus expression system at 500 nM by Z-LYTE assay relative to control
Serine/threonine-protein kinase PAK 2 (Homo sapiens), sequence (Q13177 whole entry, the tested form may be a part): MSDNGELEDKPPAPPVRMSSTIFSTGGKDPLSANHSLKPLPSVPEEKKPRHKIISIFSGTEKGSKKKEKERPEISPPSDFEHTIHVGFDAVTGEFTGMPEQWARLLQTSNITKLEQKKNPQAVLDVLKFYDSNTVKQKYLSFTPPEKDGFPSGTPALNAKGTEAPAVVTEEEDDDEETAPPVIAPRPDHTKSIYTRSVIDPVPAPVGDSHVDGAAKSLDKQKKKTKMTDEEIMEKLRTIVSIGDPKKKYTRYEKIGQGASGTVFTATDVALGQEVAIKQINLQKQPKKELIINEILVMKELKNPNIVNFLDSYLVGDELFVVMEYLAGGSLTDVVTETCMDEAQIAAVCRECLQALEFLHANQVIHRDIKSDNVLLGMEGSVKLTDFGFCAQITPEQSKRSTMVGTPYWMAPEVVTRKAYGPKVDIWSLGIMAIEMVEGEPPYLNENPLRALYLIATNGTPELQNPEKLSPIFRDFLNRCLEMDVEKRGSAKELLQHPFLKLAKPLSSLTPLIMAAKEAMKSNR

[12] = target: Proto-oncogene tyrosine-protein kinase ROS (Homo sapiens) (UniProt P08922); assay: Inhibition of recombinant human GST-tagged ROS1 cytoplasmic domain (1883 to 2347 residues) expressed in baculovirus expression system at 500 nM by Z-LYTE assay relative to control
[13] = target: RAC-alpha serine/threonine-protein kinase (Homo sapiens) (UniProt P31749); assay: Inhibition of recombinant human full length His-tagged AKT1 expressed in baculovirus expression system at 500 nM by Z-LYTE assay relative to control
[14] = target: Serine/threonine-protein kinase pim-2 (Homo sapiens) (UniProt Q9P1W9); assay: Inhibition of recombinant full length human GST-tagged PIM2 expressed in baculovirus expression system at 500 nM by Z-LYTE assay relative to control
Serine/threonine-protein kinase pim-2 (Homo sapiens), sequence (Q9P1W9 whole entry, looked up): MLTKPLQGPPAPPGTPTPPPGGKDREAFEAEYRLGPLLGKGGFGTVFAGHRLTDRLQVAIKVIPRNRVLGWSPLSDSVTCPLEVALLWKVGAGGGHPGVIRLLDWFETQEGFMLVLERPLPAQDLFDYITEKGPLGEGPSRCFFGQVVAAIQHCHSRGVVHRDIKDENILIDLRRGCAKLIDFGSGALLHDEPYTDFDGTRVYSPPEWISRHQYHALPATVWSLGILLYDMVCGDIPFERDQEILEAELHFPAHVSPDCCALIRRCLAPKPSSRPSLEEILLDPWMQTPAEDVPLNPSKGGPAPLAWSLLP

[15] = target: T3, Inhibitor of nuclear factor kappa-B kinase subunit beta (Homo sapiens) (UniProt O14920); assay: Inhibition of recombinant full-length human GST-tagged IKKbeta expressed in baculovirus expression system at 500 nM by Z-LYTE assay relative to control
T3 sequence (whole entry): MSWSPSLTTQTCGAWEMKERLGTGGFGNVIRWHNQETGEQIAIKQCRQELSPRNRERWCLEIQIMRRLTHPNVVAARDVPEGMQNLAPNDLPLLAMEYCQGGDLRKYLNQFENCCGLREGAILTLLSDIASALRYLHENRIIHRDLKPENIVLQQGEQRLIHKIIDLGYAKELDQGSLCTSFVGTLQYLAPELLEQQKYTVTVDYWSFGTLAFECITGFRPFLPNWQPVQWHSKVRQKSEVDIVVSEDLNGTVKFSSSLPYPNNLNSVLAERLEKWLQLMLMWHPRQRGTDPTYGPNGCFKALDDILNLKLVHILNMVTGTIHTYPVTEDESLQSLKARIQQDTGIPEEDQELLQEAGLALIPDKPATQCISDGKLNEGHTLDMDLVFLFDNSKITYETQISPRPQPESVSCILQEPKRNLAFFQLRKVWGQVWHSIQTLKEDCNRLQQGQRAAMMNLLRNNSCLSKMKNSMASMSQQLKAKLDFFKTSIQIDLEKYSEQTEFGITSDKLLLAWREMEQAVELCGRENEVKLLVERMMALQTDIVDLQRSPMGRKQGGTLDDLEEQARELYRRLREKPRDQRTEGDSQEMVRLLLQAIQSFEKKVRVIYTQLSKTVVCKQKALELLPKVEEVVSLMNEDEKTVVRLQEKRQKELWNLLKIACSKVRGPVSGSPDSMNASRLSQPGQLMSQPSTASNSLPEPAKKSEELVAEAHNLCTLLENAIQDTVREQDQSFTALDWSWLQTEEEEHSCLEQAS

Structure (SMILES) | inhibition [1] [%] | inhibition [2] [%] | inhibition [3] [%] | inhibition [4] [%] | inhibition [5] [%] | inhibition [6] [%] | inhibition [7] [%] | inhibition [8] [%] | inhibition [9] [%] | inhibition [10] [%] | inhibition [11] [%] | inhibition [12] [%] | inhibition [13] [%] | inhibition [14] [%] | inhibition [15] [%]
OC[C@@H](Nc1ncnc2sc(-c3ccc(O)cc3)cc12)c1ccccc1 | -9 | 11 | 0 | 1 | 4 | -2 | 19 | 1 | 21 | 7 | 5 | 23 | -1 | 3 | 12
OCc1ccc(-c2cc3c(N[C@H](CO)c4ccccc4)ncnc3[nH]2)cc1 | 6 | 7 | 12 | 14 | -1 | 0 | -3 | 0 | 10 | 3 | 5 | 71 | -4 | 10 | 11
CCC(=O)Nc1ccc(-c2c[nH]c3ncnc(N[C@H](C)c4ccccc4)c23)cc1 | 5 | 1 | 8 | 6 | 3 | 3 | 4 | 1 | 15 | -1 | 5 | 22 | -4 | 8 | 14
CN(C)CCn1cc(-c2cccc(O)c2)c2c(N)ncnc21 | 2 | 9 | 18 | 4 | 17 | 1 | 3 | 1 | 6 | -7 | 6 | 15 | 0 | 5 | 7

Reference: ChEMBL document CHEMBL4152312, “Identification of fused pyrimidines as interleukin 17 secretion inhibitors” (Eur J Med Chem, 2018)
